Laboratory results reported in patent US20240252454A1, “COMPOSITION COMPRISING AN INHIBITOR OF MITOCHONDRIAL TRANSCRIPTION” (LEAD DISCOVERY CENTER GMBH, priority 2021, published 2024).

Legend:
Assay in all cases: SRB assay, IMT combined with inhibitor
Type in all cases: cell-based
SKOV3 = SKOV3 (ovary); concentration series of the labelled inhibitor + fixed concentration of IMT (3S)-1-[(2R)-2-[4-(2-chloro-4-fluoro-phenyl)-2-oxo-chromen-7-yl]oxypropanoyl]piperidine-3-carboxylic acid (Table 3: 40 nM, 120 h); negative=synergistic, positive=antagonistic
Outline: (§1)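 Cellular biomass changes were measured by sulforhodamine B staining in medium with 5 mM glucose, at least two independent replicates. Dilution series of MAPK pathway standard-of-care inhibitors were combined with a fixed 40 nM (3S)-1-[(2R)-2-[4-(2-chloro-4-fluoro-phenyl)-2-oxo-chromen-7-yl]oxypropanoyl]piperidine-3-carboxylic acid; growth followed over 120 h versus untreated cells.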

DU145 = DU145 (prostate); concentration series of the labelled inhibitor + fixed concentration of IMT (3S)-1-[(2R)-2-[4-(2-chloro-4-fluoro-phenyl)-2-oxo-chromen-7-yl]oxypropanoyl]piperidine-3-carboxylic acid (Table 3: 40 nM, 120 h); negative=synergistic, positive=antagonistic
Outline: as §1

NCIH460 = NCIH460 (lung); concentration series of the labelled inhibitor + fixed concentration of IMT (3S)-1-[(2R)-2-[4-(2-chloro-4-fluoro-phenyl)-2-oxo-chromen-7-yl]oxypropanoyl]piperidine-3-carboxylic acid (Table 3: 40 nM, 120 h); negative=synergistic, positive=antagonistic
Outline: as §1

HELA = HELA (cervix); concentration series of the labelled inhibitor + fixed concentration of IMT (3S)-1-[(2R)-2-[4-(2-chloro-4-fluoro-phenyl)-2-oxo-chromen-7-yl]oxypropanoyl]piperidine-3-carboxylic acid (Table 3: 40 nM, 120 h); negative=synergistic, positive=antagonistic
Outline: as §1

SKMEL5 = SKMEL5 (skin); concentration series of the labelled inhibitor + fixed concentration of IMT (3S)-1-[(2R)-2-[4-(2-chloro-4-fluoro-phenyl)-2-oxo-chromen-7-yl]oxypropanoyl]piperidine-3-carboxylic acid (Table 3: 40 nM, 120 h); negative=synergistic, positive=antagonistic
Outline: as §1

U2OS = U2OS (bone); concentration series of the labelled inhibitor + fixed concentration of IMT (3S)-1-[(2R)-2-[4-(2-chloro-4-fluoro-phenyl)-2-oxo-chromen-7-yl]oxypropanoyl]piperidine-3-carboxylic acid (Table 3: 40 nM, 120 h); negative=synergistic, positive=antagonistic
Outline: as §1

GRANTA-519 = GRANTA-519 (hematological); concentration series of the labelled inhibitor + fixed concentration of IMT (3S)-1-[(2R)-2-[4-(2-chloro-4-fluoro-phenyl)-2-oxo-chromen-7-yl]oxypropanoyl]piperidine-3-carboxylic acid (Table 3: 40 nM, 120 h); negative=synergistic, positive=antagonistic
Outline: as §1

COLO205 = COLO205 (colon); concentration series of the labelled inhibitor + fixed concentration of IMT (3S)-1-[(2R)-2-[4-(2-chloro-4-fluoro-phenyl)-2-oxo-chromen-7-yl]oxypropanoyl]piperidine-3-carboxylic acid (Table 3: 40 nM, 120 h); negative=synergistic, positive=antagonistic
Outline: as §1

MV4-11 = MV4-11 (hematological); concentration series of the labelled inhibitor + fixed concentration of IMT (3S)-1-[(2R)-2-[4-(2-chloro-4-fluoro-phenyl)-2-oxo-chromen-7-yl]oxypropanoyl]piperidine-3-carboxylic acid (Table 3: 40 nM, 120 h); negative=synergistic, positive=antagonistic
Outline: as §1

CALU6 = CALU6 (lung); concentration series of the labelled inhibitor + fixed concentration of IMT (3S)-1-[(2R)-2-[4-(2-chloro-4-fluoro-phenyl)-2-oxo-chromen-7-yl]oxypropanoyl]piperidine-3-carboxylic acid (Table 3: 40 nM, 120 h); negative=synergistic, positive=antagonistic
Outline: as §1

U87MG = U87MG (brain); concentration series of the labelled inhibitor + fixed concentration of IMT (3S)-1-[(2R)-2-[4-(2-chloro-4-fluoro-phenyl)-2-oxo-chromen-7-yl]oxypropanoyl]piperidine-3-carboxylic acid (Table 3: 40 nM, 120 h); negative=synergistic, positive=antagonistic
Outline: as §1

A549 = A549 (lung); concentration series of the labelled inhibitor + fixed concentration of IMT (3S)-1-[(2R)-2-[4-(2-chloro-4-fluoro-phenyl)-2-oxo-chromen-7-yl]oxypropanoyl]piperidine-3-carboxylic acid (Table 3: 40 nM, 120 h); negative=synergistic, positive=antagonistic
Outline: as §1

SW620 = SW620 (colon); concentration series of the labelled inhibitor + fixed concentration of IMT (3S)-1-[(2R)-2-[4-(2-chloro-4-fluoro-phenyl)-2-oxo-chromen-7-yl]oxypropanoyl]piperidine-3-carboxylic acid (Table 3: 40 nM, 120 h); negative=synergistic, positive=antagonistic
Outline: as §1

HT1080 = HT1080 (connective tissue); concentration series of the labelled inhibitor + fixed concentration of IMT (3S)-1-[(2R)-2-[4-(2-chloro-4-fluoro-phenyl)-2-oxo-chromen-7-yl]oxypropanoyl]piperidine-3-carboxylic acid (Table 3: 40 nM, 120 h); negative=synergistic, positive=antagonistic
Outline: as §1

SMILES: CC(=O)Nc1cccc(-n2c(=O)n(C3CC3)c(=O)c3c(Nc4ccc(I)cc4F)n(C)c(=O)c(C)c32)c1 [Trametinib]
- difference between the calculated combinatorial index (BLISS) and the observed combinatorial effect (SKOV3): −0.0444
- difference between the calculated combinatorial index (BLISS) and the observed combinatorial effect (DU145): 0.0287
- difference between the calculated combinatorial index (BLISS) and the observed combinatorial effect (NCIH460): 0.0180
- difference between the calculated combinatorial index (BLISS) and the observed combinatorial effect (HELA): −0.0064
- difference between the calculated combinatorial index (BLISS) and the observed combinatorial effect (SKMEL5): 0.0072
- difference between the calculated combinatorial index (BLISS) and the observed combinatorial effect (U2OS): −0.0358
- difference between the calculated combinatorial index (BLISS) and the observed combinatorial effect (GRANTA-519): −0.0185
- difference between the calculated combinatorial index (BLISS) and the observed combinatorial effect (COLO205): 0.0319
- difference between the calculated combinatorial index (BLISS) and the observed combinatorial effect (MV4-11): 0.0747
- difference between the calculated combinatorial index (BLISS) and the observed combinatorial effect (CALU6): −0.0308
- difference between the calculated combinatorial index (BLISS) and the observed combinatorial effect (U87MG): 0.0578
- difference between the calculated combinatorial index (BLISS) and the observed combinatorial effect (A549): −0.0142
- difference between the calculated combinatorial index (BLISS) and the observed combinatorial effect (SW620): 0.0028
- difference between the calculated combinatorial index (BLISS) and the observed combinatorial effect (HT1080): 0.0288
